Numbering of substitutions follows the chain as printed.

The test system of assay [1] is Aurora A (AurA). Put plainly: Time-resolved FRET lifetime assay, AurA biosensor labeled at L225C/S284C, 384-well plates. As to conditions: for DFG-In/DFG-Out state of AurA on inhibitor binding / inter-probe distance: 5 μM inhibitor; for DFG-In/DFG-Out state of AurA on inhibitor binding: samples lacking TPX2; for inter-probe distance: samples lacking TPX2 (phosphorylated and unphosphorylated AurA).
Procedure: (§4) Serial dilution of each of the inhibitors was performed to prepare 50× stock solutions in DMSO which were transferred to 96-well mother plates. Using a Mosquito HV liquid handler (TTP Labtech Ltd, UK), 1 μL of 50× stock solution was transferred from the 96-well mother plates to 384-well assay plates. […] Donor-only and donor+acceptor labeled AurA, +/− saturating concentrations of TPX2 (either 10 μM or 20 μM), were prepared separately to a final concentration in the plates of 1 nM or 50 nM AurA in ADP Quest buffer (15 mM HEPES, pH 7.4, 20 mM NaCl, 1 mM EGTA, 0.02% Tween-20, 10 mM MgCl2, 0.1 mg/mL BGG (bovine-γ-globulins), 1% DMSO). The donor-only and donor+acceptor samples were separately distributed to the 384-well assay plates using a Multidrop-Combi dispenser with standard plastic tip cassettes (Thermo Fisher Scientific, Waltham, Mass.). Plates were incubated at room temperature (25° C.) for 20 minutes prior to being read on the Fluorescence Lifetime Plate Reader which was designed and built by Fluorescence Innovations, Inc. (Minneapolis, Minn.).
(§5) In MATLAB, waveforms were normalized and grouped into samples types based on the plate layout and output into a format that can be read by the fitting program. These parameters include the timescale of experiments, the instrument response function (IRF), and the matched pairs of normalized donor plus acceptor (D+A) and donor-only (D−O) waveforms for each sample. […] Briefly, the instrument response function and the model of the fluorescence decay are convolved to define the nanosecond decay which describes the measured time-resolved waveforms. […] D+A samples were fit using the same exponential functions as the D−O fits, but modified by a distance-dependent FRET term, consisting of a Gaussian distribution of inter-probe distances, that describes the decrease in the lifetime relative to the D−O samples. The mean distance and full-width half maximum of the Gaussian functions were fit individually for each D+A and D−O pairing, while the parameters that described general conditions of the experiment common among all samples, such as the fraction of a given D+A sample containing D-only protein, were globally linked. Numerical fitting was performed using the Levenberg-Marquardt method.
(§6) The donor+acceptor waveform (FIG. 8C) was modeled from the amplitudes and lifetimes present in the matched donor-only sample and modified so that a distance-dependent resonance energy transfer term describes the decrease in fluorescence lifetime relative to the donor-only control. An iterative fitting procedure was employed in which parameters that could be shared across the plate were initially globally constrained while the remaining parameters settled into photo-physically realistic values, and then released to finalize the distance determinations. In the final iteration, the distance and full-width half maximum of the Gaussian model were allowed to vary individually for each sample.
(§7) The waveforms measured in the presence of a maximal concentration (5 μM) of each inhibitor were fit as described above.

Assay [2] relates to Aurora A (AurA). The assay is described as follows: Steady-state FRET ligand titration with FRET-labeled AurA. The assay is classed as binding, human. Particulars: apo AurA, Alexa 488/Alexa 568. On the procedure:
(§1) ADP stocks (Sigma-Aldrich Corporation, St. Louis, Mo.) were dissolved at 100 mM in 1 M HEPES pH 7.5 and stored at −20° C.
(§2) Samples were excited at 490 nm and fluorescence emission was recorded 510 nm to 750 nm.
(§3) Ligand binding data were visualized and analyzed using Microsoft Excel and Origin software. FRET was calculated using the equation E=1−(DA/D), where E is the efficiency of FRET, DA is the fluorescence of the AurA+D+A sample, and D is the fluorescence of the corresponding AurA+D control sample.

Assay [3] addresses T1, Aurora A (AurA) (Homo sapiens, UniProt O14965, C290S/C393S/L225C/S284C).
T1 sequence (O14965 122-403 L225C/S284C/C290S/C393S): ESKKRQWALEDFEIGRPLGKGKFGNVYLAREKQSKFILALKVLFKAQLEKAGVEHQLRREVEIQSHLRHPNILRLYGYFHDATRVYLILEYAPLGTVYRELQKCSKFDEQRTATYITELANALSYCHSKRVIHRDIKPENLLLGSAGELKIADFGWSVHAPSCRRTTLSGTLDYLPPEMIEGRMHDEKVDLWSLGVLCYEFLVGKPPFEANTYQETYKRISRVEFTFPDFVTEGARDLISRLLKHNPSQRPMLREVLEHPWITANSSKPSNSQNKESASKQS
T1 sequence (Q9ULW0 1-43 partner): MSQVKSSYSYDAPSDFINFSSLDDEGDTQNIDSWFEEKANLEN
Put plainly: Time-resolved FRET lifetime assay, AurA biosensor labeled at L225C/S284C, 384-well plates. As to conditions: 5 μM inhibitor, unphosphorylated AurA bound to TPX2.
Procedure: as §4, §5, §6, §7

A further assay addresses T2, AurA (Homo sapiens, UniProt O14965).
T2 sequence (O14965 1-403): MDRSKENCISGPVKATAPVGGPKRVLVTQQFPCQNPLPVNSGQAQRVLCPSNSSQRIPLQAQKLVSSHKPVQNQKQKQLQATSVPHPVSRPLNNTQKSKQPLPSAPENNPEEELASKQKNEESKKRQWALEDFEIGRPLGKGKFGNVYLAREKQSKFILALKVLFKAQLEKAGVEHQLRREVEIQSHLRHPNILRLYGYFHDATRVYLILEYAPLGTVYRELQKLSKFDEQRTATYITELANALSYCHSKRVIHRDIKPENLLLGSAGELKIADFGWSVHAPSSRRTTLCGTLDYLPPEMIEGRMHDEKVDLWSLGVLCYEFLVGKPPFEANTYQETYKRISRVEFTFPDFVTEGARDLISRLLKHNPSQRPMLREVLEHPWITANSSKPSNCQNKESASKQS
As to conditions: FIG. 11; cited from earlier work.

The subject of another assay is p53-altered liver cancer. As to conditions: mice; cited from earlier work.
The subject of assay [4] is interaction between AurA and the oncoprotein MYC. As to conditions: cited from earlier work.
The target of assay [5] is T3, Aurora A (AurA) (Homo sapiens, UniProt O14965, C290S/C393S/L225C/S284C).
T3 construct: human Aurora A, residues 122-403, containing an N-terminal hexahistidine tag; hexahistidine (N); made in house; host or cells: E. coli BL21-DE3-RIL
T3 sequence (O14965 122-403 L225C/S284C/C290S/C393S): T1 sequence (O14965 122-403 L225C/S284C/C290S/C393S)
Put plainly: Steady-state FRET ligand titration with FRET-labeled AurA. The format is binding. As to conditions: ligand added to apo AurA, calculated from published R0. The method, then: as §1, §2, §3

Assay [6] has as its target T4, Aurora A (AurA) (Homo sapiens, UniProt O14965, C290S/C393S/L225C/T287C).
T4 construct: human Aurora A, residues 122-403, containing an N-terminal hexahistidine tag; hexahistidine (N); made in house; host or cells: E. coli BL21-DE3-RIL
T4 sequence (O14965 122-403 L225C/T287C/C290S/C393S): T1 sequence (O14965 122-403 L225C/S284C/C290S/C393S) with C163S, T166C
The assay is described as follows: Time-resolved FRET ligand titration with labeled AurA (Example 1). The format is binding. Particulars: TR-FRET, ligand added to labeled AurA. On the procedure:
Direct waveform recording experiments were performed in a 384 well plate, and measurement was performed using a NovaFluor fluorescence lifetime plate reader (Fluorescence Innovations, Inc., Minneapolis, Minn.). […] Experiments were performed at 50 nM AurA in ADP Quest Assay buffer+1% DMSO.
TCSPC experiments were performed using a spectrometer built by the group of Dr. David D. Thomas. […] Experiments were performed at 100 nM to 200 nM AurA in ADP Quest Assay buffer+1% DMSO.
On the technique in general: In TR-FRET formats the signal depends on donor and acceptor labels being close together.

Turning to `COc1cc(N2CCC(N3CCN(C)CC3)CC2)ccc1Nc1ncc(Cl)c(Nc2ccccc2S(=O)(=O)C(C)C)n1` [TAE-684], in the assay with Aurora A (AurA) [1], the “DFG-In/DFG-Out state of AurA on inhibitor binding” value is “DFG-In state” and the inter-probe distance result was “long distances”.

In the case of “TPX2: AurA-specific activator peptide, synthetic construct of human TPX2 residues 1-43 (MSQVKSSYSYDAPSDFINFSSLDDEGDTQNIDSWFEEKANLEN; UniProt Q9ULW0 1-43, looked up, fragment)”, in the assay on Aurora A (AurA) [1] (in the presence of TPX2, no inhibitor), the “width of the distance distribution (full width at half maximum)” value is “narrow significantly”. Also, the inter-dye distance result with Aurora A (AurA) [1] (in the presence of TPX2, no inhibitor, unphosphorylated and phosphorylated samples (approximately 30 Å without TPX2)) is recorded as “approximately 50 Å”. Further, the “change in FRET on addition of ligand” value in the assay on Aurora A (AurA) [2] is given as “reduces FRET”.

Turning to `O=C(Nc1cccc(Cl)c1)Nc1ncc(CCNc2ncnc3ccsc23)s1` [SNS-314], the inter-probe distance result in the assay on Aurora A (AurA) [1] is reported as “long distances”.

On to `CO[C@@H](C(=O)N1Cc2n[nH]c(NC(=O)c3ccc(N4CCN(C)CC4)cc3)c2C1)c1ccccc1` [Danusertib], for which, at Aurora A (AurA) [3], the “inter-probe distance relative to DFG-In compounds” value is listed as “slightly shorter distances”. Besides, in the assay on Aurora A (AurA) [1], the “DFG-In/DFG-Out state of AurA on inhibitor binding” value is reported as “DFG-Out state” and the inter-probe distance is given as around 30 Å. Also, the “AurA state in the X-ray structure with bound inhibitor” value on AurA is “DFG-Out state”.

As for `O=C(O)c1ccc(Nc2ncc3c(n2)-c2ccc(Cl)cc2C(c2c(F)cccc2F)=NC3)cc1` [MLN-8054], the treatment outcome in the assay with p53-altered liver cancer is “successful treatment”. Further, the “DFG-In/DFG-Out state of AurA on inhibitor binding” value with Aurora A (AurA) [1] is on record as “DFG-Out state”. Moreover, the “effect on the AurA-MYC interaction” value in assay [4] is recorded as “disrupt”. Also, at AurA, the “AurA state in the X-ray structure with bound inhibitor” value is reported as “DFG-Out state”.

In the case of `Cc1cc(Nc2cc(N3CCN(C)CC3)nc(Sc3ccc(NC(=O)C4CC4)cc3)n2)n[nH]1` [VX-680], in the assay on Aurora A (AurA) [1], the “DFG-In/DFG-Out state of AurA on inhibitor binding” value is “DFG-Out state” and the inter-probe distance was around 30 Å. Besides, in the assay with Aurora A (AurA) [2], the “change in FRET on addition of ligand” value is “no observable change”.

For the compound `CCc1cccc(CC)c1NC(=O)N1Cc2n[nH]c(NC(=O)c3ccc(N4CCN(C)CC4)cc3)c2C1` [PHA-680632], in the assay on Aurora A (AurA) [1], the “DFG-In/DFG-Out state of AurA on inhibitor binding” value is “DFG-In state” and the inter-probe distance entry is recorded as “long distances”.

Consider `Nc1ncnc2c1ncn2[C@@H]1O[C@H](COP(=O)(O)OP(=O)(O)O)[C@@H](O)[C@H]1O` [ADP], for which the “change in FRET on addition of ligand” value with Aurora A (AurA) [2] is listed as “reduce FRET”. For the same compound, the “increase in population average R (donor-acceptor distance)” value at Aurora A (AurA) [5] is “approximately 3 Å”. The “change in average fluorescence lifetime” value on Aurora A (AurA) [6] is “increase in average fluorescence lifetime”.
